Laboratory results from patent publication US20060009425A1, “Oral formulations of paricalcitol” (priority 2004, published 2006).

Columns and labels:
[1] = system: serum and urine pharmacodynamic markers; test: Serum and urine pharmacodynamic markers, moderate to severe renal impairment (Example 4)
Procedure: Blood samples for paricalcitol assay were collected by venipuncture into 7 mL evacuated EDTA-containing collection tubes within 5 minutes prior to dosing (0 hour) and at 0.5, 1, 2, 3, 4, 6, 8, 12, 24, 36, and 48 hours after dosing on Study Days 1 and 8. Sufficient blood was collected to provide approximately 2.5 mL plasma from each sample. In addition, urine was collected for 48 hours following Study Day 1 dosing. Serum and urine pharmacodynamic markers, were measured at selected time points in the study. Also, a 24 hr urine amount of urine pharmacodynamic markers were measured following paricalcitol dose on Study Days 1 and 8.
Pharmacodynamic: Serum pharmacodynamic markers [serum calcium, calcium-phosphorus product (Ca×P), serum phosphorus, serum bone specific alkaline phosphatase (AP), serum osteocalcin, serum C-terminal telopeptide of collagen (CTx), serum tartarate resistant acid phosphatase-type 5b (TRAP-5b), intact (iPTH) and whole PTH] were measured from samples collected immediately prior to dosing on Study Days 1, 3, 5, and 8. One additional sample was collected 48 hours following the Study Day 8 dose (on the morning of Study Day 10). Urine pharmacodynamic markers [calcium, creatinine and deoxy-pyridinoline (DPD)] were measured from samples collected immediately prior to dosing on Study Days 1 and 8, and during the intervals 0 to 4, 4 to 8, 8 to 12, and 12 to 24 hours after dosing on Study Days 1 and 8. In addition, these markers were measured using the first morning void sample on Study Days 3, 5, and 10.
Pharmacodynamic: Two-sample t-tests were performed to compare baseline pharmacodynamic marker values between the two renal impairment groups. For improving the normality of the distribution of the baseline values, natural logarithm transformations were made to all the pharmacodynamic markers except for the urine calcium and urine creatinine. The relationship between the % change from Study Day 1 to Study Day 10 and the Study Day 1 paricalcitol AUC0-∞ was investigated using linear regression. The Study Day 1 AUC0-∞ and the corresponding baseline value were independent variables. A one-sample t-test was performed for each group on the change from Study Day 1 to Study Day 8 in 24-hour amount of urine calcium and creatinine.

[2] = system: biochemical bone activity markers; test: Phase 3 TIW study, biochemical bone activity markers (Table C); type: in vivo, human; settings: CKD Stage 3 and 4, TIW treated subjects (Table C)
Text: Serum bone-specific alkaline phosphate and serum osteocalcin are considered more sensitive bone markers to evaluate degree of bone remodeling than urinary bone marker. […] These subjects received treatment with the oral formulations of the present invention or a placebo. The bone markers examined in these subjects were serum osteocalcin, serum bone-specific alkaline phosphatase, urinary pyridinoline, and deoxypyridinoline. If more than 1 biochemical bone activity marker measurement existed for a subject on a particular day, the higher measurement was considered to be that subject's biochemical bone activity marker measurement for that day. […] The Final Visit measurement was defined as the last biochemical bone activity marker measurement following the first dose of study drug.
The Week 11 Visit measurement was defined as the biochemical bone activity marker measurement on the day closest to the Week 11 scheduled visit, for which the possible measurements to choose from were those collected within 64 and 77 days following the first dose of study drug.
Changes from baseline to Week 11 Visit and to Final Visit in biochemical bone activity markers were compared between oral paricalcitol and placebo using an ANOVA with treatment as the factor on the combined Phase 3 all treated subject population (Table F). Also, the changes from baseline to Week 11 Visit and to Final Visit were compared between oral paricalcitol and placebo using an ANCOVA with baseline as the second factor on the combined Phase 3 all treated subject population (Table G).
The study was performed in 4 parts: a Screening Visit, a Pre-Treatment Phase, a Treatment Phase, and a Follow-Up Phase. At the Screening Visit, subjects reviewed and signed the informed consent form prior to the conduct of any study-specific screening procedures. A spot urine sample was used to calculate calcium/creatinine ratio. A blood sample was drawn for iPTH, blood urea nitrogen (BUN), albumin and serum creatinine levels. […] The serum creatinine, BUN, and albumin values were used to calculate the subject's estimated glomerular filtration rate (eGFR) using a formula derived from the “Modification of Diet in Renal Disease” (MDRD) study. Subjects with a calculated eGFR of 15 to 60 mL/min were eligible to undergo Pre-Treatment Phase procedures. The Pre-Treatment Phase was 1 to 4 weeks. During this phase, subjects had 2 scheduled office visits. The office visits could have occurred at any time over a 4-week period but must have been at least 1 day apart. During these visits, subjects were to meet laboratory criteria regarding serum iPTH, calcium, and phosphorus levels. If the subject was unable to meet these criteria, he or she may have been re-screened once after 4 weeks. […] Subjects who satisfied inclusion and exclusion criteria after a minimum of 1 week in the Pre-Treatment Phase were eligible to enter the Treatment Phase. During the Treatment Phase, subjects were to self-administer study drug 3 times weekly, on Monday, Wednesday and Friday, for a total of 24 weeks. The initial dose was 2 or 4 mcg (depending on baseline iPTH levels). Procedures to be performed during the Treatment Phase included vital signs, chemistry and hematology, urinary pyridinoline, urinary deoxypyridinoline, serum bone-specific alkaline phosphatase, serum osteocalcin, urinalysis, spot urine for calcium/creatinine ratio, and recording of adverse events and concurrent medications. Serum iPTH, calcium, phosphorus, and albumin were measured every 2 weeks. Dose adjustments were to be made according to these chemistry results for iPTH, calcium, and phosphorus. Doses may have been increased in 2 mcg increments every 4 weeks. Dose reductions were to occur according to a protocol-specified algorithm. However, dosing could have been adjusted any time if, in the judgment of the Investigator, a risk to subject safety existed.

[3] = moderate and severe renal impairment groups, supra-pharmacologic fixed doses, 1-week study
[4] = moderate renal impairment, Study Day 1
[5] = moderate renal impairment, Study Day 8
[6] = severe renal impairment, Study Day 1
[7] = severe renal impairment, Study Day 8

C[C@H](/C=C/[C@H](C)C(C)(C)O)[C@H]1CC[C@H]2/C(=C/C=C3C[C@@H](O)C[C@H](O)C3)CCC[C@]12C [Paricalcitol, 19-nor-1α,3β,25-trihydroxy-9,10-secoergosta-5(Z); 7(E),22(E)-triene]
PTH levels [1, 3]: significant decrease | calcium, phosphorus, Ca×P levels [1, 3]: increases | Ca/Creatinine, urine over 24 hours after dose [1, 4]: 0.045 ± 0.051 | Calcium, total amount excreted in urine over 24 hours after dose [1, 4]: 49.39 ± 56.85 mg | Creatinine, total amount excreted in urine over 24 hours after dose [1, 4]: 1326.7 ± 566.1 mg | DPD, total amount excreted in urine over 24 hours after dose [1, 4]: 52.03 ± 18.96 nmol | Ca/Creatinine, urine over 24 hours after dose [1, 5]: 0.074 ± 0.078 | Calcium, total amount excreted in urine over 24 hours after dose [1, 5]: 79.24 ± 63.27 mg | Creatinine, total amount excreted in urine over 24 hours after dose [1, 5]: 1324.4 ± 402.0 mg | DPD, total amount excreted in urine over 24 hours after dose [1, 5]: 58.60 ± 16.45 nmol | 24-hour urinary excretion of calcium ([1]; repeated dosing): does not affect | Ca/Creatinine, urine over 24 hours after dose [1, 6]: 0.028 ± 0.019 | Calcium, total amount excreted in urine over 24 hours after dose [1, 6]: 29.18 ± 20.97 mg | Creatinine, total amount excreted in urine over 24 hours after dose [1, 6]: 1088.3 ± 278.6 mg | DPD, total amount excreted in urine over 24 hours after dose [1, 6]: 48.34 ± 21.04 nmol | Calcium, total amount excreted in urine over 24 hours after dose [1, 7]: 50.92 ± 41.18 mg | DPD, total amount excreted in urine over 24 hours after dose [1, 7]: 47.74 ± 20.47 nmol | Serum Bone-Specific Alkaline Phosphatase, Change from Baseline (SE) to Final [2]: −7.922 (1.3520) mcg/L | Serum Bone-Specific Alkaline Phosphatase, Change from Baseline (SE) to Week 11 [2]: −4.673 (1.2590) mcg/L | Serum Osteocalcin, Change from Baseline (SE) to Final [2]: −19.00 (4.381) ng/mL | Serum Osteocalcin, Change from Baseline (SE) to Week 11 [2]: −4.23 (4.386) ng/mL | Urinary Deoxypyridinoline, Change from Baseline (SE) to Final [2]: −0.0084 (0.00375) nmol/mg Creat | Urinary Deoxypyridinoline, Change from Baseline (SE) to Week 11 [2]: −0.0116 (0.00354) nmol/mg Creat | Urinary Pyridinoline, Change from Baseline (SE) to Final [2]: −4.06 (2.276) nmol/mmol Creat | Urinary Pyridinoline, Change from Baseline (SE) to Week 11 [2]: −5.46 (2.545) nmol/mmol Creat
